Results on eight molecules are retold here after patent publication US20060275854A1, “Method for monitoring reactions in real time” (priority 2003, published 2006).

The structures appear in SMILES notation. Entries after “also recorded” stand apart in the source; their conditions may differ.

Experiment [1] concerns anti-ATP signaling aptamer. The experiment in a line: Fluorescence signaling of the structure-switching ATP aptamer reporter on target addition. The experiment is classed as binding. The note with it: for fluorescence intensity increase over the background reading: 750 μM target, FIG. 1B.
Experiment [2] concerns Adenosine Deaminase (ADA). Nature of the experiment: Adenosine deaminase activity and inhibition monitored by signaling aptamer. The format is biochemical. How it is done:
Adenosine deaminase transforms adenosine into inosine. […] Thus conversion from adenosine to inosine results in a decrease in fluorescent signal. […] EHNA is a known inhibitor of adenosine deaminase.
After 3 minutes, different concentrations of EHNA.HC1, an adenosine deaminase inhibitor, in DMSO were introduced: no inhibitor (blue line), 100 nM inhibitor (green line) and 10 μM inhibitor (red line). The solutions were further incubated for 5 more minutes. […] Finally, the solutions were exposed to an enzyme, called Adenosine Deaminase (ADA), which transforms adenosine into inosine. The aptamer has no affinity for the inosine, so the transformation should induce the disruption of the aptamer—adenosine complex state and the formation of a duplex state with the QDNA.

Experiment [3] has as its system porcine ALP. The note with it: 0.1 mM compound, 0.75 mM AMP, FIG. 5A.
Procedure: The resulting mixture was incubated for another 10 min, followed by the addition of 5 units of porcine ALP (resulting in a concentration of 0.01 units/μL) and further incubation for 75 more minutes. The fluorescence intensity (FALP) was monitored continuously. For the same compound, the fluorescence intensity (FNoALP) of a control reaction with the addition of porcine ALP was also recorded in the same way.
For experiment [4], the target named is porcine ALP. The note with it: known inhibitors; cited from earlier work.
A further experiment relates to calf intestine ALP. Conditions: known; cited from earlier work.

Turning to `Nc1ncnc2c1ncn2[C@@H]1O[C@H](COP(=O)(O)OP(=O)(O)OP(=O)(O)O)[C@@H](O)[C@H]1O` [ATP, adenosine 5′-triphosphate], in experiment [1], the “fluorescence intensity increase over the background reading” value (from here on “fluorescence intensity increase”) amounted to 6.9 fold.
On to `OC[C@H]1O[C@@H](n2cnc3c(O)ncnc32)[C@H](O)[C@@H]1O` [inosine], for which the “affinity of the signaling aptamer for the substance (in words)” value (shortened to “affinity of the signaling aptamer”) in experiment [1] was “virtually no affinity; also recorded: no affinity at all”.
`CCCCCC[C@@H]([C@@H](C)O)n1cnc2c(N)ncnc21.Cl` [EHNA]: the rate of deamination result in experiment [2] (100 nM inhibitor, 1 mM adenosine) was “slower”; in experiment [2] (10 μM inhibitor, 1 mM adenosine), “virtually stopped”; in experiment [2] (10 μM inhibitor, 1 mM adenosine, listed as EHNA.HC1) it was “almost no deamination”; in experiment [2] (100 mM EHNA, FIG. 6) it was “reduced”.
As to `Nc1ncnc2c1ncn2[C@@H]1O[C@H](CO)[C@@H](O)[C@H]1O` [adenosine], in experiment [1], the “affinity of the signaling aptamer” value is “higher affinity” and the “fluorescence intensity increase” value was found to be 8.1 fold.
Regarding `Nc1ncnc2c1ncn2[C@@H]1O[C@H](COP(=O)(O)OP(=O)(O)O)[C@@H](O)[C@H]1O` [ADP, adenosine 5′-diphosphate], in experiment [1], the “fluorescence intensity increase” value came to 8.3 fold.
In the case of `Cl.c1ccc(C2CN3CCSC3=N2)cc1` (racemic) [Tetramisole, (±) 2,3,5,6-Tetrahydro-6-phenylimidazo[2,1-b]thiazole hydrochloride], in the experiment with porcine ALP [3], the “rate of transformation of AMP to adenosine relative to the uninhibited reaction” value was “considerably reduced”. Also, the Ki entry on porcine ALP [4] is listed as “low mM range”. Besides, in the experiment on calf intestine ALP, the “inhibition of calf intestine ALP (in words)” value is given as “not calf intestine ALP”.
`Nc1ncnc2c1ncn2[C@@H]1O[C@H](COP(=O)(O)O)[C@@H](O)[C@H]1O` [AMP, adenosine 5′-monophosphate]: in experiment [1], the “affinity of the signaling aptamer” value is recorded as “moderate affinity” and the “fluorescence intensity increase” value is listed as 5.3 fold.
Regarding `Cl.c1ccc(C2CN3CCSC3=N2)cc1` (single isomer, unassigned; (-)) [Levamisole, (−) 2,3,5,6-Tetrahydro-6-phenylimidazo[2,1-b]thiazole hydrochloride], in the experiment with porcine ALP [3], the “rate of transformation of AMP to adenosine relative to the uninhibited reaction” value is given as “considerably reduced”. The Ki entry at porcine ALP [4] is reported as “low mM range”. In the experiment on calf intestine ALP, the “inhibition of calf intestine ALP (in words)” value was “not calf intestine ALP”.
